Assay results: article PMC10882719 (Frontiers in Neuroscience, 2024)
Where two headings read alike, the source gives them in different places.

Assays:
Type in all cases: cell-based
168 GPCRs [1] = molecular target: T1, 168 GPCRs (Homo sapiens, UniProt P37288); conditions: AVPR1a
T1 construct: host or cells: PathHunter cell lines
Description: (§1) Studies were performed at Eurofins DiscoverX Corporation (Fremont, CA) using the GPCRmax assay according to the manufacturer’s protocols. […] Activity greater than 30% typically indicates agonist activity and inhibition greater than 50% indicates antagonist activity. This assay uses enzyme fragment complementation with […] as the functional reporter. When a GPCR is activated, […] is recruited and the reporter is detectable. GPCRmax offers a high-throughput screen of 168 GPCRs for agonist or antagonist activity. Briefly, PathHunter cell lines were propagated, seeded into 384-well microplates and incubated at 37°C. […] Microplates were read following signal generation with a PerkinElmer Envision™ instrument for chemiluminescent signal detection. Compound activity was analyzed using CBIS data analysis suite (ChemInnovation, CA) to determine raw values (RLU). For agonist mode assay, percentage activity was calculated using the following formula: % Activity =100% × (mean RLU of test sample - mean RLU of vehicle control) / (mean MAX control ligand - mean RLU of vehicle control). For antagonist mode assay, percentage inhibition was calculated using the following formula: % Inhibition =100% × (1 - (mean RLU of test sample - mean RLU of vehicle control) / (mean RLU of EC80 control - mean RLU of vehicle control)).

168 GPCRs [2] = molecular target: T2, 168 GPCRs (Homo sapiens, UniProt P49238)
T2 construct: host or cells: PathHunter cell lines
T2 sequence (P49238 1-355): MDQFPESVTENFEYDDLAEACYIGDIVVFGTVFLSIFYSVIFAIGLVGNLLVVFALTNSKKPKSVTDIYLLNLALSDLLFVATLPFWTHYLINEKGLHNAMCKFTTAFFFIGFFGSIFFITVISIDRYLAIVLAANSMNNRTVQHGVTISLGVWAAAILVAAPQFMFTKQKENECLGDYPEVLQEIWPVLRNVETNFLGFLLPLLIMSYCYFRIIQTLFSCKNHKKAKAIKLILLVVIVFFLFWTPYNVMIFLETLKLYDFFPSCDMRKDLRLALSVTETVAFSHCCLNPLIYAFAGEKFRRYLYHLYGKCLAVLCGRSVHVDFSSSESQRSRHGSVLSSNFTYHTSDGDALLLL
Description: as §1

168 GPCRs [3] = molecular target: T3, 168 GPCRs (Homo sapiens, UniProt P48039); conditions: MTNR1A
T3 construct: host or cells: PathHunter cell lines
T3 sequence (P48039 whole entry): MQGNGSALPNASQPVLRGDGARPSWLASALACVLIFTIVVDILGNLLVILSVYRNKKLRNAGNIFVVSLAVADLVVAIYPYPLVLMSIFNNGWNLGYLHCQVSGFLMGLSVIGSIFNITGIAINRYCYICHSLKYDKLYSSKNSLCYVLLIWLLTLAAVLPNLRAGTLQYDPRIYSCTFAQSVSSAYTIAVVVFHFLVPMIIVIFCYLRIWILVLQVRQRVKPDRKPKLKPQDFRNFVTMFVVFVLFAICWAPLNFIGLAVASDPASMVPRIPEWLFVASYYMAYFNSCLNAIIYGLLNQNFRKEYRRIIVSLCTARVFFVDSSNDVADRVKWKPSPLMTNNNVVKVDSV
Description: as §1

168 GPCRs [4] = molecular target: T4, 168 GPCRs (Homo sapiens, UniProt P30874); conditions: SSTR2
T4 construct: host or cells: PathHunter cell lines
T4 sequence (P30874 whole entry): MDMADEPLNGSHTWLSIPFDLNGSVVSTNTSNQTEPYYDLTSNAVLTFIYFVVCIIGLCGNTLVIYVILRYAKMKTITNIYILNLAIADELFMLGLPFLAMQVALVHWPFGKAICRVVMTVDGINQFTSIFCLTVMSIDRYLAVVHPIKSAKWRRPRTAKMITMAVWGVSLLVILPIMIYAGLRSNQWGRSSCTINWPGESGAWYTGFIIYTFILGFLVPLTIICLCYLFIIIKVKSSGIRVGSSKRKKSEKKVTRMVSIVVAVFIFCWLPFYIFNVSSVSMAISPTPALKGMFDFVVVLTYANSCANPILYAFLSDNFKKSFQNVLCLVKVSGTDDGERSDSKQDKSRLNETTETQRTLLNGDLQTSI
Description: as §1

168 GPCRs [5] = molecular target: T5, 168 GPCRs (Homo sapiens, UniProt P49683); conditions: PRLHR
T5 construct: host or cells: PathHunter cell lines
T5 sequence (P49683 1-370): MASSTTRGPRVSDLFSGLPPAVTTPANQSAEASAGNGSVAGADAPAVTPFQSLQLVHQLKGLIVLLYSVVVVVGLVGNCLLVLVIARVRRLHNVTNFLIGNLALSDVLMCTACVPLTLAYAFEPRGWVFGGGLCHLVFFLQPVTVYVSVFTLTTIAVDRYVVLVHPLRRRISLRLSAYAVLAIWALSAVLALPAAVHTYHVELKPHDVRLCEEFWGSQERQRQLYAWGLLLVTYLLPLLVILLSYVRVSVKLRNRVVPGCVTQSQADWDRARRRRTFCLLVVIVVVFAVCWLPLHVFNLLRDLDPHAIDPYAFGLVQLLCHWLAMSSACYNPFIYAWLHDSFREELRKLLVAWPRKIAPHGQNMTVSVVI
Description: as §1

168 GPCRs [6] = molecular target: T6, 168 GPCRs (Homo sapiens, UniProt P32239); conditions: CCKBR
T6 construct: host or cells: PathHunter cell lines
T6 sequence (P32239 1-447): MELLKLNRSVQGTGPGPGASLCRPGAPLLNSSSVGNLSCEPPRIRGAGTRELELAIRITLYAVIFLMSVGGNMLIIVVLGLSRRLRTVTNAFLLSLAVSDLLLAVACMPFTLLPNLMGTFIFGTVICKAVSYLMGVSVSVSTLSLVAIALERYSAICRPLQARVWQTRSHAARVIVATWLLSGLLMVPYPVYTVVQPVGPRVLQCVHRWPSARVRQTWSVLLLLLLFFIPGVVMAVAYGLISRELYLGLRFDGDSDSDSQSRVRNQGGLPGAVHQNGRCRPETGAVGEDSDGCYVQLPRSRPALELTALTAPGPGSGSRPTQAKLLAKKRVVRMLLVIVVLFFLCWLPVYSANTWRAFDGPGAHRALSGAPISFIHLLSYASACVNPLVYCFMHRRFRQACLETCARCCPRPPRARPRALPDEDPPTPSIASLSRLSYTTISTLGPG
Description: as §1

168 GPCRs [7] = molecular target: T7, 168 GPCRs (Homo sapiens, UniProt Q99788)
T7 construct: host or cells: PathHunter cell lines
T7 sequence (Q99788 1-373): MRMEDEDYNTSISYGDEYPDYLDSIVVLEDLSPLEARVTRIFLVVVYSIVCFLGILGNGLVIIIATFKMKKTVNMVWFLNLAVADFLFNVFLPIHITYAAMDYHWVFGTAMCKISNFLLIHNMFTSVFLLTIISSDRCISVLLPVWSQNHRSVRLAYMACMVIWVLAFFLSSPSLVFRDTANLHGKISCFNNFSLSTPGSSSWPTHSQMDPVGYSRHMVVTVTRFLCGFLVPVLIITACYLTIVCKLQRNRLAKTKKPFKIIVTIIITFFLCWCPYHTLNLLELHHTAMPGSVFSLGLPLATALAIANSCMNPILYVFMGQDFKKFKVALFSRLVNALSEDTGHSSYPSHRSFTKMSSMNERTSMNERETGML
Description: as §1

168 GPCRs [8] = molecular target: T8, 168 GPCRs (Homo sapiens, UniProt P32245); conditions: MC4R
T8 construct: host or cells: PathHunter cell lines
T8 sequence (P32245 whole entry): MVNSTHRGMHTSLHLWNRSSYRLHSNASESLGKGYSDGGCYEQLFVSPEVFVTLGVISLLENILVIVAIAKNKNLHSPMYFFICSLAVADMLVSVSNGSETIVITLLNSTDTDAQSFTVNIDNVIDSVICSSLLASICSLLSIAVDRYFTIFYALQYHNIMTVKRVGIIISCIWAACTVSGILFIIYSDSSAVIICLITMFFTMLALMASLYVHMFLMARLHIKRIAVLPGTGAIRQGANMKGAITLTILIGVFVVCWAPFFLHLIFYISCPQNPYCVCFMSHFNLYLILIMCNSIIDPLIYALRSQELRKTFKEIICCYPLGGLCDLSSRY
Description: as §1

T1 sequence (P37288 whole entry): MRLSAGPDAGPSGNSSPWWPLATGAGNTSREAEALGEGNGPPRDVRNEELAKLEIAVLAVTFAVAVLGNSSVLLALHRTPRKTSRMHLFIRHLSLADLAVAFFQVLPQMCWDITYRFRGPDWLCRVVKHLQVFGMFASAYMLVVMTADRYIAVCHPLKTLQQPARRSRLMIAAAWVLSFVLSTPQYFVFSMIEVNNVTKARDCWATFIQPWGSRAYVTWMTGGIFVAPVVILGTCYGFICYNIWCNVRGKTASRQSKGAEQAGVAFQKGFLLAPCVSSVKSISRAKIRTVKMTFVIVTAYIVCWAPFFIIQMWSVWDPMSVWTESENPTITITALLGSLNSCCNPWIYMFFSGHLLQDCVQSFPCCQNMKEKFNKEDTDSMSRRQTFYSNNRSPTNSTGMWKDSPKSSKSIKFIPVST

| SMILES | % Agonist Activity (168 GPCRs [1]; 1 uM) [%] | % Antagonist Activity (168 GPCRs [1]; 1 uM) [%] | % Agonist Activity (168 GPCRs [1]; 10 uM) [%] | % Antagonist Activity (168 GPCRs [1]; 10 uM) [%] | % Agonist Activity (168 GPCRs [2]; CX3CR1, 1 uM) [%] | % Antagonist Activity (168 GPCRs [2]; CX3CR1, 1 uM) [%] | % Agonist Activity (168 GPCRs [2]; CX3CR1, 10 uM) [%] | % Antagonist Activity (168 GPCRs [2]; CX3CR1, 10 uM) [%] | % Agonist Activity (168 GPCRs [3]; 1 uM) [%] | % Antagonist Activity (168 GPCRs [3]; 1 uM) [%] | % Agonist Activity (168 GPCRs [3]; 10 uM) [%] | % Antagonist Activity (168 GPCRs [3]; 10 uM) [%] | % Agonist Activity (168 GPCRs [4]; Conc 1 uM) [%] | % Antagonist Activity (168 GPCRs [4]; Conc 1 uM) [%] | % Agonist Activity (168 GPCRs [4]; Conc 10 uM) [%] | % Antagonist Activity (168 GPCRs [4]; Conc 10 uM) [%] | % Agonist Activity (168 GPCRs [5]; Conc 1 uM) [%] | % Antagonist Activity (168 GPCRs [5]; Conc 1 uM) [%] | % Agonist Activity (168 GPCRs [5]; Conc 10 uM) [%] | % Antagonist Activity (168 GPCRs [5]; Conc 10 uM) [%] | other results |
| --- | --- | --- | --- | --- | --- | --- | --- | --- | --- | --- | --- | --- | --- | --- | --- | --- | --- | --- | --- | --- | --- |
| CNC(C)Cc1ccc2c(c1)OCO2 (stereo not shown) [MDMA, 3,4-Methylenedioxy methamphetamine, reference compound] | -0.2 | -3.6 | -0.4 | 4.5 | -1.3 | 6.5 | -1.4 | 3.7 | -9.2 | 18.4 | -9.6 | 17.7 | 0 | 2.7 | 0.2 | 9.1 | 1.5 | 6 | -0.3 | 10.8 | % Agonist Activity (168 GPCRs [6]; 1 uM): 2.3%; % Antagonist Activity (168 GPCRs [6]; 1 uM): 3.2%; % Agonist Activity (168 GPCRs [6]; 10 uM): 1.2%; % Antagonist Activity (168 GPCRs [6]; 10 uM): 5.2%; % Agonist Activity (168 GPCRs [7]; CMKLR1, 1 uM): -0.3%; % Antagonist Activity (168 GPCRs [7]; CMKLR1, 1 uM): 0.4%; % Agonist Activity (168 GPCRs [7]; CMKLR1, 10 uM): -0.4%; % Antagonist Activity (168 GPCRs [7]; CMKLR1, 10 uM): 1.1%; % Agonist Activity (168 GPCRs [8]; 1 uM): 2.3%; % Antagonist Activity (168 GPCRs [8]; 1 uM): -14.5%; % Agonist Activity (168 GPCRs [8]; 10 uM): 0.7%; % Antagonist Activity (168 GPCRs [8]; 10 uM): -11.7% |
| CNC(C)C(=O)c1ccc2c(c1)OCO2 (stereo not shown) [methylone] | -0.6 | -3 | -0.5 | 2.8 | 0 | -0.2 | -0.4 | -6.1 | -12.3 | 30.8 | -11.7 | 7.8 | 0 | -0.4 | 0.7 | -4.2 | -2.2 | 17.8 | -0.2 | 15.8 | % Agonist Activity (168 GPCRs [6]; 1 uM): -1%; % Antagonist Activity (168 GPCRs [6]; 1 uM): -1.1%; % Agonist Activity (168 GPCRs [6]; 10 uM): 1.5%; % Antagonist Activity (168 GPCRs [6]; 10 uM): -2.4%; % Agonist Activity (168 GPCRs [7]; CMKLR1, 1 uM): -0.2%; % Antagonist Activity (168 GPCRs [7]; CMKLR1, 1 uM): -0.2%; % Agonist Activity (168 GPCRs [7]; CMKLR1, 10 uM): -0.3%; % Antagonist Activity (168 GPCRs [7]; CMKLR1, 10 uM): -5.6%; % Agonist Activity (168 GPCRs [8]; 1 uM): -1.4%; % Antagonist Activity (168 GPCRs [8]; 1 uM): -5.2%; % Agonist Activity (168 GPCRs [8]; 10 uM): -1.1%; % Antagonist Activity (168 GPCRs [8]; 10 uM): -14% |
